# Calls of active or inactive are those of the source.
# Key:
# Cytochrome P450 1A2 = target: T1, Cytochrome P450 1A2 (Homo sapiens, UniProt P05177);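 also: PubChem cytochrome P450 panel assay, CYP1A2 panel member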
# T1 sequence (P05177 whole entry): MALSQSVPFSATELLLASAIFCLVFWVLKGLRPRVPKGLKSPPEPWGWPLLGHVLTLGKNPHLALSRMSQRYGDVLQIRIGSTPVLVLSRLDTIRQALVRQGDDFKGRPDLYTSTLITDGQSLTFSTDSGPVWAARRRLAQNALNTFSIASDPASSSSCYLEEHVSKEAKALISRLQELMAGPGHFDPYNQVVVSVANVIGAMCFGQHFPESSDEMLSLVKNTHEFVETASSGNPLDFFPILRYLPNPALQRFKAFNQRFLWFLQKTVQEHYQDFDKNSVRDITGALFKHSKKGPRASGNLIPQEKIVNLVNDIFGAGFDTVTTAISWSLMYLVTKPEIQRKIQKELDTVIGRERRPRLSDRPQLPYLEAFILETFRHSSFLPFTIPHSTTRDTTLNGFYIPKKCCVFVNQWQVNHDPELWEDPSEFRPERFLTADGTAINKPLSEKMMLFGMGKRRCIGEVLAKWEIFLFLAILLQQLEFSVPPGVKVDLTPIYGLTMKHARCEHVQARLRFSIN
# Cytochrome P450 2C19 = Cytochrome P450 2C19 (Homo sapiens, UniProt P33261); experiment: Cytochrome panel assay with activity outcomes. Panel member name: p450-cyp2c19 Compounds with AC50 equal or less than 10 uM are considered active; assay type: functional
# Cytochrome P450 2C19, sequence (P33261 whole entry): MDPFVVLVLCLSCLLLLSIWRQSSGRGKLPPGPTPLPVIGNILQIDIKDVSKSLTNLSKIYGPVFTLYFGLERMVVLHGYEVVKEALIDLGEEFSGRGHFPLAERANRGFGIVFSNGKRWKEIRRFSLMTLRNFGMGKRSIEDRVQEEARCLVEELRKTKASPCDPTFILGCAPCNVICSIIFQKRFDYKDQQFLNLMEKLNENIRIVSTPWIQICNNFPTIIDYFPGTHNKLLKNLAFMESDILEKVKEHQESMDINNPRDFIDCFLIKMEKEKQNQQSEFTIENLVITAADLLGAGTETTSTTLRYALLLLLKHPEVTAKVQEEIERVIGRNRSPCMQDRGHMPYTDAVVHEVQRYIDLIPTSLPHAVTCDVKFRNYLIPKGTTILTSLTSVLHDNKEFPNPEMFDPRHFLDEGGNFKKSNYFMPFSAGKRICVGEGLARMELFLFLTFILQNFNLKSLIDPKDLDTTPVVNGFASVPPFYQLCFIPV
# Cytochrome P450 2C9 = Cytochrome P450 2C9 (Homo sapiens, UniProt P11712)
# Cytochrome P450 2C9, sequence (P11712 whole entry): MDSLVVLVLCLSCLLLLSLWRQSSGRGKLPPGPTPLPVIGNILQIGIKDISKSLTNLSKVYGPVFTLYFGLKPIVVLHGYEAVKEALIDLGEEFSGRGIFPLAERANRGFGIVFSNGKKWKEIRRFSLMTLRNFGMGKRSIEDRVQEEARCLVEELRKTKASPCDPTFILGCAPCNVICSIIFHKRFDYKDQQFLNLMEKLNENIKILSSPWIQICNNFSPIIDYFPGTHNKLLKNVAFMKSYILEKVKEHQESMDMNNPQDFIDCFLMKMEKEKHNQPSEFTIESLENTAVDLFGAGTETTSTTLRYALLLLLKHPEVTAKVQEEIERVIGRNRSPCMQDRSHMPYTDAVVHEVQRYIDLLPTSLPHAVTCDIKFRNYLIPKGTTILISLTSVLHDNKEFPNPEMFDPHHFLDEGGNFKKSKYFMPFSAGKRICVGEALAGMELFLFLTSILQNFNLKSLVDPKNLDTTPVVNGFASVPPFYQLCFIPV
# Cytochrome P450 3A4 = Cytochrome P450 3A4 (Homo sapiens, UniProt P08684);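 also: CYP3A4 tested as one member of a cytochrome P450 panel screen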
# Cytochrome P450 3A4, sequence (P08684 whole entry): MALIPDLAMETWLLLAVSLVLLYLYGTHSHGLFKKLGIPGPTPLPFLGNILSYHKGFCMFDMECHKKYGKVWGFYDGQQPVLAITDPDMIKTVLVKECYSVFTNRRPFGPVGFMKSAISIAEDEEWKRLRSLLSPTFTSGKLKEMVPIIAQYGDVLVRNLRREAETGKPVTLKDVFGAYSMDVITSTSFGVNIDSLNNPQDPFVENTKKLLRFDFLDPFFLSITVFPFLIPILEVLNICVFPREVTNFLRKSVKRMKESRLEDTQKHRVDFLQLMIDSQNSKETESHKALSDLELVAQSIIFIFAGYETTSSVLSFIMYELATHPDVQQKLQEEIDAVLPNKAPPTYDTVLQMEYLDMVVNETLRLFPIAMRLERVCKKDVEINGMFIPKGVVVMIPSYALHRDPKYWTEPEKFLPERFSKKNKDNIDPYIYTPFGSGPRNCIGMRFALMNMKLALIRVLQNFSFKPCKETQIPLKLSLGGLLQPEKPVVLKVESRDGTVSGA
# [1] = target: T2, Rac GTPase-activating protein 1 (Homo sapiens, UniProt Q9H0H5); experiment: MgcRacGAP GTPase-activating activity inhibitors, confirmation, biochemical, ADP Hunter fluorescence, primary and confirmatory (AID 624330); assay type: functional
# T2 sequence (Q9H0H5 whole entry): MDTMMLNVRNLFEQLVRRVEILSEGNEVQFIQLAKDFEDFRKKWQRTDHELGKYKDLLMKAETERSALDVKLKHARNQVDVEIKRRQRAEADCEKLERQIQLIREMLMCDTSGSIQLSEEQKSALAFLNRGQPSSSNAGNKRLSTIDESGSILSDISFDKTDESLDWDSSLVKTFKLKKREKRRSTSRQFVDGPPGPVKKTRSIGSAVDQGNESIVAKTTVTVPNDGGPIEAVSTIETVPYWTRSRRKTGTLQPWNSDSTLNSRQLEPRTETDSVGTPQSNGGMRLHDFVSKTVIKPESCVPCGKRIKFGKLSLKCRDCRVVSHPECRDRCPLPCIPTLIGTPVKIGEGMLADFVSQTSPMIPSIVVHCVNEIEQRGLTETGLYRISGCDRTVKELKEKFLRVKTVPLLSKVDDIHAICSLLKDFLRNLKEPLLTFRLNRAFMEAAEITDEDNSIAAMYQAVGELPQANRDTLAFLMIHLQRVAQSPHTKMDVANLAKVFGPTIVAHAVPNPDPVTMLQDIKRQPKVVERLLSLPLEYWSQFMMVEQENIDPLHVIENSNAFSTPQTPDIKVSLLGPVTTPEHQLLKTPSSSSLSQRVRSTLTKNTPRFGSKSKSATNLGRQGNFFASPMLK
# [2] = tested on: Streptococcus sp. 'group A'; experiment: growth inhibition of control SK(-) GAS strain, dose response, counter-screen for streptokinase expression inhibitor project, luminescence, kanamycin, BacTiterGlo, confirmation (AID 1900); assay type: functional, organism-based
# Streptokinase A = target: T3, Streptokinase A (Streptococcus pyogenes serotype M1, UniProt P10520); experiment: S. pyogenes streptokinase expression inhibitors, potency, dose response, plasminogen activation absorbance, OD405 (AID 1914); assay type: functional, Streptococcus pyogenes M1 GAS;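 also: secreted streptokinase activity via plasminogen activation per viability signal from cell pellet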
# T3 sequence (P10520 whole entry): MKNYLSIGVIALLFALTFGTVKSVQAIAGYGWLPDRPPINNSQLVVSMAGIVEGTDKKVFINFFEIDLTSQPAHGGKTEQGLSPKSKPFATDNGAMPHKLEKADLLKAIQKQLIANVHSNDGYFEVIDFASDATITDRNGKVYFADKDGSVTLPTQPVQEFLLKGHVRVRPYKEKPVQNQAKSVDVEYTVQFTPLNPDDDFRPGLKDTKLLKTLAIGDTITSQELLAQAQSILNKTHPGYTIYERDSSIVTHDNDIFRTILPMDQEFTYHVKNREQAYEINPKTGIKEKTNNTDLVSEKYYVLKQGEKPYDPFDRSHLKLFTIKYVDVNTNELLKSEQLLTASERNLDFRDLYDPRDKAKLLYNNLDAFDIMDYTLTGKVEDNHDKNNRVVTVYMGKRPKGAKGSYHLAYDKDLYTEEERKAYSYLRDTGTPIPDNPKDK
# Streptococcus = experiment: Group A Streptococcus viability loss, dose response, counter-screen for streptokinase expression inhibitor project, luminescence, BacTiterGlo (AID 1915); assay type: functional, organism-based;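 also: potency for reduction of bacterial viability or growth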
# [3] = HEp-2 cell cytotoxicity, dose response, cytotoxicity control for RSV inhibitor project, HTS (AID 2410); assay type: functional; conditions: human respiratory syncytial virus
compound,measurement,setting,value
CNC[C@@H](SC)c1ccc(O)c(O)c1,AC50,Cytochrome P450 1A2,6.31 µM (inconclusive)
N#C/C(=C(\O)C(=O)O)c1ccc(-c2cccc3ccccc23)cc1,AC50,Cytochrome P450 2C19,inconclusive
same,AC50,Cytochrome P450 2C9,3.16 µM (inconclusive)
C/C(=C(/CCO)SSC[C@@H]1CCCO1)N(C=O)Cc1cnc(C)nc1N,AC50,Cytochrome P450 3A4,10 µM (inconclusive)
CN(C)/C(CN1CCOCC1)=C1\N=C(c2ccccc2)OC1=O,AC50,Cytochrome P450 2C19; read-out: AC50,7.94 µM (inconclusive)
COc1ccccc1COCC(O)CNCC1(N2CCCCC2)CCCCC1 (stereo not drawn),IC50,[1],121 µM (active)
O=C(Oc1ccccc1)N1CCC2(CC1)CN(Cc1ccncc1)C2,AC50,Cytochrome P450 2C19; read-out: AC50,20 µM (inconclusive)
same,AC50,Cytochrome P450 1A2,10 µM (inconclusive)
same,AC50,Cytochrome P450 3A4,12.6 µM (inconclusive)
O=C(Nc1ccc(F)cc1F)c1cccn1-c1ncc(C(F)(F)F)cc1Cl,AC50,Cytochrome P450 1A2,14.1 µM (inconclusive)
same,AC50,Cytochrome P450 3A4,28.2 µM (inconclusive)
same,AC50,Cytochrome P450 2C9,39.8 µM (inconclusive)
Cc1ccc(S(=O)(=O)N2CCC(C(=O)O)(c3ccccc3)CC2)cc1,AC50,Cytochrome P450 2C19,inconclusive
O=C(CSCc1ccc(Cl)cc1)Nc1nccs1,AC50,Cytochrome P450 3A4,3.55 µM (inconclusive)
same,AC50,Cytochrome P450 2C9,14.1 µM (inconclusive)
COc1ccc(CNC(=O)c2cnc(C)cn2)cc1,AC50,Cytochrome P450 1A2,12.6 µM (inconclusive)
O=C(c1cccc(Cl)c1)N1CCN(C2CCCCC2)CC1,IC50,[1],300 µM (active)
COc1cccc(C(C#N)N2N=C(C)CC2(C)C)c1O (stereo not drawn),AC50,Cytochrome P450 2C19; read-out: AC50,2.24 µM (inconclusive)
O=C(Nc1nc2ccccc2n1CCN1CCCCC1)C1CCCCC1,AC50,Cytochrome P450 2C19; read-out: AC50,28.2 µM (inconclusive)
same,AC50,Cytochrome P450 3A4,17.8 µM (inconclusive)
O=C(O)c1c2c(nc3ccccc13)/C(=C/c1ccc(O)cc1)CCC2,IC50,[1],46.6 µM (active)
Cc1ccccc1NC1=C(C(=O)c2ccccc2)N(C)S(=O)(=O)c2ccccc21,AC50,Cytochrome P450 3A4,3.16 µM (inconclusive)
N#Cc1cccc(NC(=O)N2CCCC3(CCN(C(=O)c4ccco4)CC3)C2)c1,AC50,Cytochrome P450 1A2,15.8 µM (inconclusive)
Cc1ccccc1CN1CCCN(Cc2ccc(Cl)cc2)S1(=O)=O,EC50,[2],10.1 µM (active)
same,EC50,Streptokinase A,23.3 µM (active)
same,EC50,Streptococcus,> 150 µM (not active)
COc1cc(CN2CCN(c3ccccc3F)CC2)cc(OC)c1O,IC50,[1],143 µM (active)
CCOC(=O)CC(NC(=O)c1ccco1)c1ccc(OC)cc1 (stereo not drawn),AC50,Cytochrome P450 1A2,25.1 µM (inconclusive)
same,AC50,Cytochrome P450 2C9,15.8 µM (inconclusive)
COc1cc2c(cc1OC)[C@@]13CCN4C=C5CCO[C@H]6CC(=O)N2[C@@H]1[C@@H]6[C@H]5C[C@H]43,AC50,Cytochrome P450 1A2,5.01 µM (inconclusive)
CC(C)(C)OC(=O)N1CCCC1C(=O)NCCc1ccccc1 (stereo not drawn),AC50,Cytochrome P450 3A4,25.1 µM (inconclusive)
Cc1ccc(Nc2nnc(S)s2)cc1F,IC50,[1],54.5 µM (active)
O=[N+]([O-])c1cccc(/C=N/Nc2cc(Cl)nc(-c3ccccc3)n2)c1,AC50,Cytochrome P450 3A4,17.8 µM (inconclusive)
Cc1ccc2c(c1)/C(=N/OC(=O)c1ccc(F)cc1)CCS2,AC50,Cytochrome P450 1A2,0.501 µM (inconclusive)
CC(=O)C(C)Oc1ccc2c3c(c(=O)oc2c1)CCCCC3 (stereo not drawn),CC50,[3],> 50 µM (active)
O=S(=O)(c1cccc2cnccc12)N1CCNCC1,AC50,Cytochrome P450 2C19; read-out: AC50,10 µM (inconclusive)
same,AC50,Cytochrome P450 1A2,39.8 µM (inconclusive)
CCOc1ccc2c(c1)C(C)=CC(C)(C)N2 [E324],AC50,Cytochrome P450 3A4,12.6 µM (inconclusive)
